Data: ChEMBL document CHEMBL3352464, “X-ray crystallographic analysis of IMP-1 metallo-β-lactamase complexed with a 3-aminophthalic acid derivative, structure-based drug design, and synthesis of 3,6-disubstituted phthalic acid derivative inhibitors” (Bioorg Med Chem Lett, 2014)

Tests used:
Pseudomonas aeruginosa [1] = test: Inhibition of IMP-1 in mexAB-deficient Pseudomonas aeruginosa KG5002/pMS363 assessed as MIC of BIPM at 50 ug/ml by microbroth dilution method
[2] = Inhibition of carbapenems-resistant Pseudomonas aeruginosa PAO1/pMS363 IMP-1 using nitrocefin as substrate after 20 mins by spectrophotometric analysis
Pseudomonas aeruginosa [3] = test: Inhibition of IMP-1 in Pseudomonas aeruginosa PAO1/pMS363 assessed as MIC of BIPM at 50 ug/ml by microbroth dilution method

| SMILES | MIC (Pseudomonas aeruginosa [1]) | IC50 [2] | MIC (Pseudomonas aeruginosa [3]) |
| --- | --- | --- | --- |
| CN(C)c1ccc(N2CCC(O)CC2)c(C(=O)O)c1C(=O)O | < 0.25 µg/mL | 4.1 µM | 1 µg/mL |
| O=C(O)c1c(F)ccc(N2CCC(O)CC2)c1C(=O)O | 1 µg/mL | 17.5 µM | 2 µg/mL |
| O=C(O)c1cccc(N2CCC(O)CC2)c1C(=O)O | < 0.25 µg/mL | 2.7 µM | 1 µg/mL |
| O=C(O)c1c(N2CCC(O)CC2)ccc(N2CCC(O)CC2)c1C(=O)O | < 0.25 µg/mL | 0.27 µM | 0.5 µg/mL |
| Cc1ccc(N2CCC(O)CC2)c(C(=O)O)c1C(=O)O | < 0.25 µg/mL | 0.7 µM | 1 µg/mL |
